Assays:
C2C12 cells [1] = assay: Western blot analysis of C2C12 myoblasts (TGF-β1 stimulation, halofuginone treatment); assay type: cell-based, mouse
Description: (§1) Specifically, C2C12 cells (CRL-1772) were purchased from the American Type Culture Collection (ATCC) and maintained in DMEM medium (Welgene) containing 10% (v/v) fetal bovine serum (FBS; Gibco) and 1% penicillin-streptomycin (P/S; Gibco) at 37° C. under 5% CO2 conditions. The C2C12 cells were seeded in 6-well plates at a density of 3×10^5 cells per well and allowed to adhere for 24 hours. Subsequently, the medium was replaced with serum-free medium after 24 hours, followed by stimulation with 5 ng/ml rhTGF-β1 (recombinant human TGF-β1; R&D Systems). After stimulation, the cells were treated with various concentrations (0 [control], or 1, 2.5, 5 [low dose], 10 [high dose], 20, 50, 100 ng/ml) of halofuginone (Sigma) in serum-free medium for 24 hours.
Specifically, the lumbar spinal cord or knee joint of the mouse of Example 6 was separated and immediately frozen at −80° C. Each lumbar spinal cord or knee joint was then homogenized and chemically treated to obtain cells. The chemically treated cells, the C2C12 cells of Example 1 or the fibroblasts of Example 5 were dissolved in a RIPA buffer (Thermo, MA, USA) with a protease inhibitor and a phosphatase inhibitor (Roche, IN, USA) and incubated on ice for 30 minutes. After centrifugation of the lysate at 13,000 rpm at 4° C. for 20 min, insoluble substances were removed. Protein concentrations were measured by BCA analysis (Pierce Biotechnology). Equal volumes of cell lysate were loaded onto SDS-PAGE gels for electrophoresis, and transferred onto nitrocellulose membranes (Amersham Protran 0.2 um NC, Amersham Pharmacia Biotech, Piscataway, NJ, USA). The membranes were then blocked with 5% (w/v) skimmilk in 1×TBST for 1 h at room temperature. After blocking, anti-RB-actin antibody (1:5000; Santa Cruz, cat #sc47778), anti-Smad2 antibody (1:1000; Cell Signaling, cat #5339), anti-p-Smad2 antibody (1:1000; Cell Signaling, cat #3108), anti-TGF-β1 antibody (1:1000; Santa Cruz, cat #sc130348), anti-α-SMA antibody (1:10000; abcam cat #ab7817), anti-MyoD antibody (1:1000; cat #sc377460), anti-collagen|antibody (1:1000; abcam cat #ab21286), anti-cleaved caspase-3 antibody (1:1000; Cell Signaling, cat #9661), anti-bax antibody (1:500; Santa Cruz, cat #sc493), anti-bcl2 antibody (1:1000; Novus Biologics, cat #NB100-56098), anti-ChAT antibody (1:1000; Millipore, cat #AB144) were treated and incubated overnight at 4° C. Subsequently, membranes were washed several times with 1×TBST and incubated with horseradish peroxidase-conjugated secondary antibodies (anti-mouse, rabbit or goat, 1:5000; GE Healthcare) in blocking buffer for 1 h at room temperature (RT). The membranes were then washed, briefly incubated with the SuperSignal West Pico Plus Chemical Substructure (Pierce Biotechnology) according to the manufacturer's procedure, and quantified with an image analyzer (Amersham Pharmacia Biotech, Piscataway, NJ, USA). β-actin was used as an internal control group. The concentration measurement of protein intensity was quantified using Image J (National Institutes of Health).
(§2) Specifically, after treating C2C12 cells with TGF-β1 for 24 hours as in Example 1, real-time qRT-PCR was performed in the same manner as in Example 11 to confirm TGF-β1, 2 and 3, α-SMA and MyoD mRNA expression (FIG. 2a), and Western blot analysis was performed in the same manner as in Example 12 to confirm autocrine expression of TGF-β1 and MyoD protein and α-SMA (FIG. 2b).
Specifically, C2C12 cells were treated with halofuginone after TGF-β1 stimulation or no stimulation in the same manner as described in Example 2, and cell viability analysis was performed through CCK-8 analysis (FIGS. 3a and 3b), and Western blot analysis was performed in the same manner as described in Example 12 to confirm autocrine expression of p-Smad2, Smad2, TGF-β1, MyoD, collagen I protein and α-SMA (FIG. 3c). […]

C2C12 cells [2] = assay: Real-time qRT-PCR analysis of C2C12 myoblasts (TGF-β1 stimulation, halofuginone treatment); assay type: cell-based, mouse; details: low (5 ng/ml) or high (10 ng/ml) concentration halofuginone, 24 h (FIG. 4a)
Description: as §1
Specifically, total RNA was isolated from C2C12 cells in Example 1, fibroblasts in Example 5, and the lumbar spinal cord of mice in Example 6 using the FavorPrep™ Tri-RNA Reagent (Favorgen). The lumbar spinal cord was isolated from the mouse in Example 6 and stored frozen at −80° C. until the experiment. The concentration of total RNA was measured at 260 nm absorbance using a spectrophotometer (NanoDrop Spectrophotometer ND-2000, Thermo Scientific). cDNA was synthesized from 1 μg of total RNA using the ReverTra Ace-α™ (Toyobo) according to the manufacturers protocol. Quantitative RT-PCR was performed using the SYBR Green ExcelTaq™ 2× Fast Q-PCR Master Mix (TQ1200, Smobio) on a thermocycler (CFX Connect Real-Time PCR Detection System, BIO-RAD) with the primers listed in Table 3 below. Fluorescence data were analyzed with Bio-Rad CFX Manager 3.1 software, and control versus relative mRNA expression was calculated by the 2AT) method. Experiments were performed four times on all samples. All primers were designed using Primer3 online software, and GAPDH was used as a control group.
as §2
Specifically, as in Example 1, C2C12 cells were stimulated with TGF-β1 for 24 hours, and then halofuginone was treated for 24 hours, and real-time qRT-PCR was performed in the same manner as in Example 11 to confirm TGF-β1, α-SMA, MyoD, and collagen I (Col-I) mRNA expression (FIG. 4a). In addition, Western blot analysis was performed in the same manner as in Example 12 to confirm TGF-β1, α-SMA, MyoD, and collagen I protein expression (FIG. 4b). In addition, immunocytochemical analysis was performed in the same manner as in Example 3 to confirm α-SMA and MyoD expression (FIG. 4c).

[3] = halofuginone 5 ng/ml and 10 ng/ml, 24 h after TGF-β1 stimulation (FIG. 3c)

## O=C(C[C@H]1NCCC[C@@H]1O)Cn1cnc2cc(Br)c(Cl)cc2c1=O (racemic) [halofuginone]
C2C12 cells [1]; [3]
  decrease in MyoD protein level by TGF-β1 stimulation: significantly recovered
  increase in TGF-β1 protein level by TGF-β1 stimulation: significantly reduced
  increase in collagen I protein level by TGF-β1 stimulation: significantly reduced
  increase in p-Smad2/Smad2 ratio by TGF-β1 stimulation: significantly reduced
  increase in α-SMA protein level by TGF-β1 stimulation: significantly reduced
C2C12 cells [1]; low or high concentration halofuginone, 24 h after TGF-β1 stimulation (FIG. 4b)
  TGF-β1, α-SMA, MyoD and collagen I protein expression, compared with the mRNA result: the same
C2C12 cells [2]
  decrease in MyoD mRNA level by TGF-β1 stimulation: significantly recovered
  increase in TGF-β1 mRNA level by TGF-β1 stimulation: significantly reduced
  increase in collagen I mRNA level by TGF-β1 stimulation: significantly reduced
  increase in α-SMA mRNA level by TGF-β1 stimulation: significantly reduced

From patent publication US20240390377A1, “COMPOSITION FOR THE PREVENTION OR TREATMENT OF NEURODEGENERATIVE OR MOTOR NEURON DISEASES COMPRISING HALOFUGINONE AS AN ACTIVE INGREDIENT” (CURAMYS CO., LTD., priority 2022, published 2024)
